This note sets out measurements from patent US8435980B2 (AbbVie Inc., priority 2009, dated 2013).

The target in the assay is T1, Cdc7 (BEV coexpressed huCDC7/DBF4) (Homo sapiens, UniProt O00311).
T1 construct: made in house; host or cells: BEV (baculovirus expression vector) co-expression; insect cells are implied but no cell line is named
Put plainly: Cdc7 enzyme inhibition assay ([33P]ATP, biotinylated peptide substrate, FlashPlate). The class given is biochemical. The following applies: Table 3; enzyme inhibition data (Ki). As to the method:
Cdc7 (BEV coexpressed huCDC7/DBF4) is prepared internally. Cdc7 assays are conducted as follows with final concentrations as listed. […] Reactions are quenched after 1 hr by the addition of 90 μL stop buffer (50 mM EDTA, 2M NaCl). […] (Ki) for exemplary compounds.

T1 sequence (O00311 whole entry): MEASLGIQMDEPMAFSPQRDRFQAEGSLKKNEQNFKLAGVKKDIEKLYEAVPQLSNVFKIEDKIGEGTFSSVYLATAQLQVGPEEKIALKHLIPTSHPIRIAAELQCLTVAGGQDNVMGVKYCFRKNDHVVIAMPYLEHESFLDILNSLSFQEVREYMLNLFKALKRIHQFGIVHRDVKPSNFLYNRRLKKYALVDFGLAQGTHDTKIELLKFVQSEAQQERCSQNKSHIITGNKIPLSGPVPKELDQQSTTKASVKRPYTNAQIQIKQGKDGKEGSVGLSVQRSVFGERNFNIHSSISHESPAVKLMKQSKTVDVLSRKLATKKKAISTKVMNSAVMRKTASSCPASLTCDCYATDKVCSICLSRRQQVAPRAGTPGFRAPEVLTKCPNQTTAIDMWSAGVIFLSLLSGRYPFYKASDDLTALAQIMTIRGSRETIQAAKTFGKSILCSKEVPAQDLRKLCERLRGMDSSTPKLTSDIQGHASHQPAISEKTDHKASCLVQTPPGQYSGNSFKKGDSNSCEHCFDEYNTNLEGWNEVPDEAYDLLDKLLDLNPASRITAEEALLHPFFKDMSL
T1 sequence (Q9UBU7 whole entry partner): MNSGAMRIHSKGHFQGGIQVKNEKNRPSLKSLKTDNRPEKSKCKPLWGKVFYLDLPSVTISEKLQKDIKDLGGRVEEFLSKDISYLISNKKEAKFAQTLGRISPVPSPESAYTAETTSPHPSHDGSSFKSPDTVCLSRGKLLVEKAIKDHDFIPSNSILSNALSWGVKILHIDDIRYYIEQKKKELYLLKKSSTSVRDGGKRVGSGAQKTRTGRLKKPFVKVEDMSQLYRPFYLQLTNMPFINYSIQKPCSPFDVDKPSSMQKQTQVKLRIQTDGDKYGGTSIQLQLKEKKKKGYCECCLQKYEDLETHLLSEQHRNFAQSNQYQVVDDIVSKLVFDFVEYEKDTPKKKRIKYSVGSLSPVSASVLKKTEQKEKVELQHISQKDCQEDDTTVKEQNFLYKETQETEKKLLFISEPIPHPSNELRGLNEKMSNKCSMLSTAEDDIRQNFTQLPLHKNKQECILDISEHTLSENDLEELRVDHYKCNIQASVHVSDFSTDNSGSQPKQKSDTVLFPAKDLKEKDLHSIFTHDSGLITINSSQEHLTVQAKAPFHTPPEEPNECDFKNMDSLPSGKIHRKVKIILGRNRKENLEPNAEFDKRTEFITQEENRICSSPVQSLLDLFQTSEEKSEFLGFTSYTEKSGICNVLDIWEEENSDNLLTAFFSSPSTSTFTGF

In general, Ki refers to the dissociation constant of the complex between target and ligand, obtained from inhibition or displacement. In the case of `Clc1cc(-c2c[nH]c3ncccc23)nc(N[C@H]2CC[C@H](NC3CCC3)CC2)n1` [Example 275, trans-N-[4-chloro-6-(1H-pyrrolo[2,3-b]pyridin-3-yl)pyrimidin-2-yl]-N′-cyclobutylcyclohexane-1,4-diamine], the Ki is under 10 nM.

For the compound `COCCNc1nc(Cl)cc(-c2c[nH]c3ncccc23)n1` [Example 279, 4-chloro-N-(2-methoxyethyl)-6-(1H-pyrrolo[2,3-b]pyridin-3-yl)pyrimidin-2-amine], the inhibition constant (Ki) was under 10 nM.

`O=C(Nc1ccccc1)N[C@H]1CC[C@H](Nc2nc(Cl)cc(-c3c[nH]c4ncccc34)n2)CC1` [Example 281, 1-(trans-4-{[4-chloro-6-(1H-pyrrolo[2,3-b]pyridin-3-yl)pyrimidin-2-yl]amino}cyclohexyl)-3-phenylurea] gave a Ki of under 10 nM.

For `O=S(=O)(N[C@H]1CC[C@H](Nc2nc(Cl)cc(-c3c[nH]c4ncccc34)n2)CC1)C1CC1` [Example 282, N-(trans-4-{[4-chloro-6-(1H-pyrrolo[2,3-b]pyridin-3-yl)pyrimidin-2-yl]amino}cyclohexyl)cyclopropanesulfonamide], the Ki was under 10 nM.

For `Cc1noc(C)c1S(=O)(=O)NC1CCC(Nc2cc(-c3c[nH]c4ncccc34)cc(Cl)n2)CC1` (stereo not drawn) [Example 283, N-(4-{[6-chloro-4-(1H-pyrrolo[2,3-b]pyridin-3-yl)pyridin-2-yl]amino}cyclohexyl)-3,5-dimethyl-1,2-oxazole-4-sulfonamide], the inhibition constant Ki is under 10 nM.

As for `COC[C@H](Cc1ccccc1)Nc1cc(-c2c[nH]c3ncccc23)cc(Cl)n1` [Example 284, 6-chloro-N-[(2S)-1-methoxy-3-phenylpropan-2-yl]-4-(1H-pyrrolo[2,3-b]pyridin-3-yl)pyridin-2-amine], the Ki was under 10 nM.

As for `Clc1cc(-c2c[nH]c3ncccc23)cc(NC2CCCC(NC3CCCC3)C2)n1` (stereo not drawn) [Example 285, N-[6-chloro-4-(1H-pyrrolo[2,3-b]pyridin-3-yl)pyridin-2-yl]-N′-cyclopentylcyclohexane-1,3-diamine], the Ki was 10 to 100 nM.

`CCOC(=O)CNC(=O)NC1CCC(Nc2cc(-c3c[nH]c4ncccc34)cc(Cl)n2)CC1` (stereo not drawn) [Example 286, ethyl N-[(4-{[6-chloro-4-(1H-pyrrolo[2,3-b]pyridin-3-yl)pyridin-2-yl]amino}cyclohexyl)carbamoyl]glycinate]: the inhibition constant Ki is under 10 nM.

In turn, `CC(C)NC(=O)NC1CCC(Nc2cc(-c3c[nH]c4ncccc34)cc(Cl)n2)CC1` (stereo not drawn) [Example 287, 1-(4-{[6-chloro-4-(1H-pyrrolo[2,3-b]pyridin-3-yl)pyridin-2-yl]amino}cyclohexyl)-3-propan-2-ylurea] showed a Ki of under 10 nM.

`CC(C)(C)NC(=O)NC1CCC(Nc2cc(-c3c[nH]c4ncccc34)cc(Cl)n2)CC1` (stereo not drawn) [Example 288, 1-tert-butyl-3-(4-{[6-chloro-4-(1H-pyrrolo[2,3-b]pyridin-3-yl)pyridin-2-yl]amino}cyclohexyl)urea] returned an inhibition constant Ki of under 10 nM.

`COCC(=O)NC1CCC(Nc2cc(-c3c[nH]c4ncccc34)cc(Cl)n2)CC1` (stereo not drawn) [Example 289, N-(4-{[6-chloro-4-(1H-pyrrolo[2,3-b]pyridin-3-yl)pyridin-2-yl]amino}cyclohexyl)-2-methoxyacetamide] returned an inhibition constant Ki of under 10 nM.

The compound `Clc1cc(-c2c[nH]c3ncccc23)cc(NC2CCCC(NCc3nccs3)C2)n1` (stereo not drawn) [Example 290, N-[6-chloro-4-(1H-pyrrolo[2,3-b]pyridin-3-yl)pyridin-2-yl]-N′-(1,3-thiazol-2-ylmethyl)cyclohexane-1,3-diamine] came in with an inhibition constant (Ki) of under 10 nM.

In turn, `Clc1cc(-c2c[nH]c3ncccc23)cc(NC2CCCC(NCc3cccc(CN4CCCCC4)c3)C2)n1` (stereo not drawn) [Example 291, N-[6-chloro-4-(1H-pyrrolo[2,3-b]pyridin-3-yl)pyridin-2-yl]-N′-[3-(piperidin-1-ylmethyl)benzyl]cyclohexane-1,3-diamine] returned a Ki of under 10 nM.

As to `CCOCC(=O)NC1CCCC(Nc2cc(-c3c[nH]c4ncccc34)cc(Cl)n2)C1` (stereo not drawn) [Example 292, N-(3-{[6-chloro-4-(1H-pyrrolo[2,3-b]pyridin-3-yl)pyridin-2-yl]amino}cyclohexyl)-2-ethoxyacetamide], the Ki is under 10 nM.

In the case of `O=C(COc1ccccc1)NC1CCCC(Nc2cc(-c3c[nH]c4ncccc34)cc(Cl)n2)C1` (stereo not drawn) [Example 293, N-(3-{[6-chloro-4-(1H-pyrrolo[2,3-b]pyridin-3-yl)pyridin-2-yl]amino}cyclohexyl)-2-phenoxyacetamide], the Ki was under 10 nM.

Regarding `O=C(NC1CCCC(Nc2cc(-c3c[nH]c4ncccc34)cc(Cl)n2)C1)c1cnccn1` (stereo not drawn) [Example 294, N-(3-{[6-chloro-4-(1H-pyrrolo[2,3-b]pyridin-3-yl)pyridin-2-yl]amino}cyclohexyl)pyrazine-2-carboxamide], the inhibition constant Ki is under 10 nM.

The compound `O=C(NC1CCCC(Nc2cc(-c3c[nH]c4ncccc34)cc(Cl)n2)C1)C1CCN1` (stereo not drawn) [Example 295, N-(3-{[6-chloro-4-(1H-pyrrolo[2,3-b]pyridin-3-yl)pyridin-2-yl]amino}cyclohexyl)azetidine-2-carboxamide] yielded a Ki of under 10 nM.

Take `CC(C)(C)OC(=O)N1CCC1C(=O)NC1CCCC(Nc2cc(-c3c[nH]c4ncccc34)cc(Cl)n2)C1` (stereo not drawn) [Example 296, tert-butyl 2-[(3-{[6-chloro-4-(1H-pyrrolo[2,3-b]pyridin-3-yl)pyridin-2-yl]amino}cyclohexyl)carbamoyl]azetidine-1-carboxylate]: the inhibition constant Ki was under 10 nM.

In turn, `C=CCNC(=O)NC1CCC(Nc2cc(-c3c[nH]c4ncccc34)cc(Cl)n2)CC1` (stereo not drawn) [Example 297, 1-(4-{[6-chloro-4-(1H-pyrrolo[2,3-b]pyridin-3-yl)pyridin-2-yl]amino}cyclohexyl)-3-prop-2-en-1-ylurea] returned a Ki of under 10 nM.

`Cn1cnc(S(=O)(=O)NCC(C)(C)CNc2cc(-c3c[nH]c4ncccc34)cc(Cl)n2)c1` [Example 298, N-(3-{[6-chloro-4-(1H-pyrrolo[2,3-b]pyridin-3-yl)pyridin-2-yl]amino}-2,2-dimethylpropyl)-1-methyl-1H-imidazole-4-sulfonamide] came in with a Ki of under 10 nM.

Consider `O=S(=O)(NC1CCCC(Nc2cc(-c3c[nH]c4ncccc34)cc(Cl)n2)C1)c1ccco1` (stereo not drawn) [Example 299, N-(3-{[6-chloro-4-(1H-pyrrolo[2,3-b]pyridin-3-yl)pyridin-2-yl]amino}cyclohexyl)furan-2-sulfonamide], for which the inhibition constant (Ki) was under 10 nM.

On to `O=S(=O)(NC1CCCC(Nc2cc(-c3c[nH]c4ncccc34)cc(Cl)n2)C1)c1cccnc1` (stereo not drawn) [Example 300, N-(3-{[6-chloro-4-(1H-pyrrolo[2,3-b]pyridin-3-yl)pyridin-2-yl]amino}cyclohexyl)pyridine-3-sulfonamide], for which the inhibition constant Ki is under 10 nM.

In turn, `CC(C)NC(=O)NC1CCCC(Nc2cc(-c3c[nH]c4ncccc34)cc(Cl)n2)C1` (stereo not drawn) [Example 301, 1-(3-{[6-chloro-4-(1H-pyrrolo[2,3-b]pyridin-3-yl)pyridin-2-yl]amino}cyclohexyl)-3-propan-2-ylurea] registered an inhibitory constant (Ki) of under 10 nM.

The compound `CCOC(=O)CNC(=O)NC1CCCC(Nc2cc(-c3c[nH]c4ncccc34)cc(Cl)n2)C1` (stereo not drawn) [Example 302, ethyl N-[(3-{[6-chloro-4-(1H-pyrrolo[2,3-b]pyridin-3-yl)pyridin-2-yl]amino}cyclohexyl)carbamoyl]glycinate] gave an inhibitory constant (Ki) of under 10 nM.

Compound `O=C(NCC1CCCCC1)NC1CCCC(Nc2cc(-c3c[nH]c4ncccc34)cc(Cl)n2)C1` (stereo not drawn) [Example 303, 1-(3-{[6-chloro-4-(1H-pyrrolo[2,3-b]pyridin-3-yl)pyridin-2-yl]amino}cyclohexyl)-3-(cyclohexylmethyl)urea] displayed an inhibition constant (Ki) of 10 to 100 nM.

`CC(=O)c1ccc(S(=O)(=O)NCC(C)(C)CNc2cc(-c3c[nH]c4ncccc34)cc(Cl)n2)cc1` [Example 304, 4-acetyl-N-(3-{[6-chloro-4-(1H-pyrrolo[2,3-b]pyridin-3-yl)pyridin-2-yl]amino}-2,2-dimethylpropyl)benzenesulfonamide] yielded a Ki of 10 to 100 nM.

The compound `Cc1noc(C)c1S(=O)(=O)NCC(C)(C)CNc1cc(-c2c[nH]c3ncccc23)cc(Cl)n1` [Example 305, N-(3-{[6-chloro-4-(1H-pyrrolo[2,3-b]pyridin-3-yl)pyridin-2-yl]amino}-2,2-dimethylpropyl)-3,5-dimethyl-1,2-oxazole-4-sulfonamide] registered an inhibition constant Ki of 10 to 100 nM.

As to `CC(C)(CNc1cc(-c2c[nH]c3ncccc23)cc(Cl)n1)CNS(=O)(=O)c1cccs1` [Example 306, N-(3-{[6-chloro-4-(1H-pyrrolo[2,3-b]pyridin-3-yl)pyridin-2-yl]amino}-2,2-dimethylpropyl)thiophene-2-sulfonamide], the Ki lay within 10 to 100 nM.

`Cc1noc(C)c1S(=O)(=O)NC1CCCC(Nc2cc(-c3c[nH]c4ncccc34)cc(Cl)n2)C1` (stereo not drawn) [Example 307, N-(3-{[6-chloro-4-(1H-pyrrolo[2,3-b]pyridin-3-yl)pyridin-2-yl]amino}cyclohexyl)-3,5-dimethyl-1,2-oxazole-4-sulfonamide]: the inhibition constant (Ki) was under 10 nM.

`CCCNC(=O)NC1CCCC(Nc2cc(-c3c[nH]c4ncccc34)cc(Cl)n2)C1` (stereo not drawn) [Example 308, 1-(3-{[6-chloro-4-(1H-pyrrolo[2,3-b]pyridin-3-yl)pyridin-2-yl]amino}cyclohexyl)-3-propylurea] had a Ki of under 10 nM.

Compound `CCCS(=O)(=O)NCC(C)(C)CNc1cc(-c2c[nH]c3ncccc23)cc(Cl)n1` [Example 309, N-(3-{[6-chloro-4-(1H-pyrrolo[2,3-b]pyridin-3-yl)pyridin-2-yl]amino}-2,2-dimethylpropyl)propane-1-sulfonamide] gave an inhibition constant (Ki) of under 10 nM.

Turning to `CC(=O)Nc1cc(-c2c[nH]c3ncccc23)cc(Cl)n1` [Example 310, N-[6-chloro-4-(1H-pyrrolo[2,3-b]pyridin-3-yl)pyridin-2-yl]acetamide], the Ki was under 10 nM.

In the case of `CC(C)S(=O)(=O)N[C@H]1CC[C@H](Nc2cc(-c3c[nH]c4ncccc34)cc(Cl)n2)CC1` [Example 311, N-(trans-4-{[6-chloro-4-(1H-pyrrolo[2,3-b]pyridin-3-yl)pyridin-2-yl]amino}cyclohexyl)propane-2-sulfonamide], the Ki is under 10 nM.
